Ends that are not written are not given here.
Experiments:
Caucasian hair shafts = experiment: Ex vivo protection evaluation in Caucasian hair shafts (protein carbonylation); parameters: species or system human; settings: positive control NAC, concentration not given; stress (PM + UV-A); basal control 100, stress 214
Excerpt: Carbonylated proteins in hair shafts or HFDPC are labeled in situ using a fluorescent probe functionalized to specifically bind carbonyl groups in proteins [Baraibar, M A, et al., “Proteomic quantification and identification of carbonylated proteins upon oxidative stress and during cellular aging” J. Proteomics (2013) 30; 92:63-70]. Specific fluorescent signals (relative fluorescent units) per experimental group (n=6) are collected and analyzed with ImageJ™ software. A relative value (%) of Carbonylation Level per experimental group is obtained with respect to basal control.
hair shafts (donor; light brown) are treated with hydrolysate of Example 3 at 1% (v/v) (active ingredient solubilized in ultra-pure water, leave on (no washing steps)) for 30 minutes with gently movement at room temperature. After this time, hair shafts are dried at room temperature and are stressed with Particle Matters at 150 μg/cm^2 (from European Reference Material; Ref. CZ100) followed by UV-A irradiation (LED source, emission peak at 365 nm, 84 J/cm^2) for 6 h.
After stress exposure Proteins Carbonylation is determined as described in Example 5.

[1] = DPPH assay of antioxidant activity in combination with preservatives, initial and after 3 months storage; format: biochemical; settings: 0.5% (w/w) Sodium Benzoate alone
Protocol: (§1) Twelve different batches of purified hydrolysate obtained as described from Examples 1 to 3 are analyzed to determine the dry weight, protein content and antioxidant activity. • Dry weight is determined by weight difference after drying at 110° C. • Protein content is determined by using a BCA Assay kit. • Antioxidant activity is determined by DPPH (2,2-Diphenyl-1-Picrylhydrazyl) assay. • Briefly, 50 μL of 100 µM DPPH in EtOH is mixed with 50 μL of purified hydrolysate and incubated in the dark at 37° C. for 20 min and absorbance measured at 517 nm.
The inhibition percentage is calculated from the following formula: […]
Suitable preservative [1% (w/w) Dermosoft™ 700B (INCI: Levulinic Acid (and) Sodium Levulinate (and) Glycerin (and) Aqua), 4% (w/w) Leucidal™ SF Max from Active Micro Technologies (AMT) (INCI: Lactobacillus Ferment) or 4% (w/w) Leucidal™ Liquid (INCI: Leuconostoc/Radish Root Ferment Filtrate)] is added onto deionized water under continuous stirring. Purified hydrolysate according to Example 3 is added on top of this solution to obtain a concentration of 44-88% (v/v), depending on sample dry weight. […] Samples are maintained for 3 months at 40° C. or at room temperature and antioxidant activity determined by DPPH assay.

[2] = DPPH inhibition by synthesized peptides identified in the hydrolysate; format: biochemical; settings: for DPPH inhibition (%): synthesized peptide, test concentration not given; for Ability to inhibit DPPH / antioxidant potential (in words): synthesized peptides, F′2 subfraction
Protocol: as §1
The purified extract according to Example 3 is further fractionated by using semi-preparative high-performance liquid chromatography (HPLC) and antioxidant activity assayed by DPPH for identifying the active fraction or peptides.
Collected tubes are analyzed by analytical HPLC at 3.0 mg/ml using a Cortecs C18+column (4.6×50 mm; 2.7 μm; Waters®) at a flow of 1.6 ml/min using the following gradient composition: isocratic of 0% B in 2 min, 0 to 30% of B in 5 min, and 30 to 75% of B in 5 min, monitoring absorbance of eluting peaks at 220 nm. Different fractions are obtained from the purified hydrolysate and lyophilized for further analysis and separation. Fractions are reconstituted in water and their antioxidant activity is determined by measuring the percentage of DPPH inhibition using the methodology described above.
To identify peptide sequences, the Proteome Discoverer 1.4.0.288 program (Thermo) with MASCOT 2.5 is used. The identified peptides are individually synthesized by applying standard solid phase peptide synthesis, using Fmoc/tBu chemistry protocols. As starting resin, CTC-PS or HO-Trt-Chem Matrix® resin is used. In the latter case, initial resin chlorination took place by overnight reaction with […] in dry THF. The first amino acid is introduced as a solution in DMF in presence of DIEA as base, followed by capping of the resin with MeOH. The resin is washed with DMF, prior to removal of Fmoc group by treatment with a 20% solution of piperidine in DMF, followed by washings in the same solvent. Subsequent residues are incorporated in DMF employing DIPCDI and Oxyma as coupling reagents. After verification of reaction completion using ninhydrin test, the solvent is filtrated away by suction. After this, the resin is washed with DMF and the Fmoc-deprotection step is repeated as abovementioned or in 2% DBU in DMF. Coupling-deprotection cycles are repeated for introduction of the remaining amino acids, with increasing Fmoc removal treatment times from the 6th residue. Oxyma (0.5M) is introduced in the cocktail whenever Asp residue is already incorporated into the growing peptide chain.
The peptidyl resin is washed and dried using DMF, DCM and diethyl ether and finally left under vacuum overnight to get rid of solvent traces. Cleavage of the crude product from the solid support and removal of the side-chain protecting groups is achieved by acidolysis using TFA and 5% water as scavenger. The peptide is precipitated out of the acidic mixture with Et2O, followed by washes with the same solvent and drying under reduced pressure. Crude trifluoroacetate salt peptide is lyophilized and analyzed by analytical HPLC-MS, affording peptide purities over 80%.
Synthesized peptides are further evaluated for its capacity to inhibit DPPH as a reference for their antioxidant potential. […] ID.

Compound: CC(=O)N[C@@H](CS)C(=O)O [NAC, N-acetyl-cysteine]
- Carbonylation level % (MEAN ± SEM) (Caucasian hair shafts): 166.8 ± 5.41 %

Compound: O=C(O)c1ccccc1 [Sodium Benzoate]
- % DPPH INHIBITION, t = 0 [1]: 0%

Compound: EYTGDAAGR [SEQ ID No. 5]
- DPPH inhibition (%) [2]: 83.9%
- Ability to inhibit DPPH / antioxidant potential (in words) [2]: most antioxidant peptides

Compound: GINAENNQRN [SEQ ID No. 4]
- DPPH inhibition (%) [2]: 96.3%
- Ability to inhibit DPPH / antioxidant potential (in words) [2]: most antioxidant peptides

Compound: LPQQEQGHDR [SEQ ID No. 2]
- DPPH inhibition (%) [2]: 77.5%
- Ability to inhibit DPPH / antioxidant potential (in words) [2]: most antioxidant peptides

Compound: VAEQEQEQAKRQ [SEQ ID No. 1]
- DPPH inhibition (%) [2]: 78.7%
- Ability to inhibit DPPH / antioxidant potential (in words) [2]: most antioxidant peptides

Compound: VDAQPEEQQR [SEQ ID No. 3]
- DPPH inhibition (%) [2]: 100%
- Ability to inhibit DPPH / antioxidant potential (in words) [2]: most antioxidant peptides

From patent US20260327274A1, “PROTEIN HYDROLYSATES OF AZUKI BEANS AND COSMETIC USES THEREOF” (LUBRIZOL ADVANCED MATERIALS, INC., priority 2022, published 2026)
